Reference: US6124242A, “Herbicidal compositions and processes based on ferrodoxin:NADP reductase inhibitors” (BASF Aktiengesellschaft, priority 1998, dated 2000)

Key:
[1] = test system: duckweed Lemnna paucicostata; assay: Growth of duckweed (increase in leaf area); assay type: in vivo; conditions: leaf area after 8-10 days, read-out: Growth inhibition (% of the control); for inhibition at 100 µM: use concentration 10^-4 M; for inhibition at 10 µM: use concentration 10^-5 M; for inhibition at 1 µM: use concentration 10^-6 M
Method: The effect of the herbicidal compounds according to the invention on the growth of duckweed can be seen from the following test results: p The duckweed Lemnna paucicostata was grown under sterile conditions in 250 ml glass vessels containing 100 ml of inorganic nutrient solution supplemented with 1% sucrose, as described by Grossmann et al., Pesticide Science 35 (1992), 283-289. At the beginning of the test, 150 μl of a solution of active ingredient in acetone (stock solution: 100-fold concentrated) were pipetted into Petri dishes (diameter 6 cm, height 1.5 cm; Greiner, Frickenhausen) containing 15 ml of nutrient solution (without added sucrose). Only the solvent component of the active ingredient solution was added to the nutrient solution for the control tests. Then, 4 Lemna plants were introduced into each dish, the dishes were covered with lids and incubated in a controlled-environment cabinet at 25° C. under permanent light conditions (Phillips TL white neon tubes, approx. 40 μmol m^-2 s^-1; λ=400-750 nm). After 8-10 days, the increase in leaf area was determined using an imaging apparatus (Imago, Compulog Computer Syst., Boblingen) as growth parameter, and this was used to calculate the % growth inhibition relative to the control.

[2] = biological target: T1, ferredoxin:NADP reductase (Spinacia oleracea, UniProt P00455); assay: Inhibition of ferredoxin reductase reaction of ferredoxin:NADP reductase; assay type: biochemical, spinach; conditions: 1 mM
T1 construct: from spinach leaves--obtainable from Sigma, Germany; purchased Sigma, Germany; host or cells: spinach leaves
T1 sequence (P00455 56-369): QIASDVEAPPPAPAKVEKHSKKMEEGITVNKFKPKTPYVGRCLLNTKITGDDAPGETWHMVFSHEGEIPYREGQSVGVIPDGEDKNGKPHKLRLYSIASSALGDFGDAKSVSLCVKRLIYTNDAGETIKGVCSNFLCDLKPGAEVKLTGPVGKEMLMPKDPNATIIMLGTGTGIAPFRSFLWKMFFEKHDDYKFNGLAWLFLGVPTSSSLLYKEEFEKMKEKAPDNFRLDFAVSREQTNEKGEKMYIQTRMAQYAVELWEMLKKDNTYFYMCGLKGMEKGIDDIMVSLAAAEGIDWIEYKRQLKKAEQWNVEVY
Method: (§1) Ferredoxin:NADP reductase not only catalyzes the physiologically relevant, reversible reaction of NADP with ferrecoxin (ferredoxin reductase activity), but also the NADPH-dependent reduction of potassium hexacyanoferrate(III) (diaphorase activity). Methods for measuring these reactions are described in the literature (Meth. Enzymol., Volumes 23 and 69).
The ferredoxin reductase activity can be determined by incubating, for example, chloroplast extracts or isolated ferredoxin:NADP reductase (Sigma) in 100 mM Tris/HCl buffer, pH 7.8+0.2 mM NADPH+0.65 mg/ml cytochrome C+0.1 mg/ml ferredoxin at 25° C. and measuring the change in the absorption at 550 nm, or the difference in absorption change at 550 nm and 540 nm. An incubation mixture without ferredoxin can be used as blank value.
(§2) The action of a test substance can be tested by dissolving the substance in a suitable solvent such as, for example, dimethyl sulfoxide and pipetting an aliquot of the solution to the above-described incubation mixture. A corresponding aliquot of the pure solvent may be used as control. The action of the test substance can be determined by comparing the absorption changes of the respective incubation batches.

[3] = biological target: T1, ferredoxin:NADP reductase; assay: Inhibition of diaphorase reaction of ferredoxin:NADP reductase; assay type: biochemical, spinach
Method: as §1
The diaphorase activity can be determined by incubating, for example, chloroplasts or isolated ferredoxin:NADP reductase (Sigma) in 100 mM Tris/HCl buffer, pH 8.2+0.5 mM potassium hexacyanoferrate(III)+0.5 mM NADPH or an NADPH-regenerating system such as, for example, 0.5 mM NADP+2.5 mM glucose-6-phosphate+1 unit/ml glucose-6-phosphate dehydrogenase at 25° C. and monitoring the decrease in absorption at 420 nm. An incubation mixture without ferredoxin:NADP reductase may be used as blank value.
as §2

Row | inhibition at 1000 µM [2] [%] | E (550 -540) (ferredoxin reductase reaction) ([2]; mean +/- standard deviation of 6 experiments, control (DMSO) 0.692, blank without ferredoxin 0.027) | inhibition at 50 µM [3] [%] | AU/min *10^-3 (diaphorase reaction, decrease in absorption at 420 nm) ([3]; 50 μM, mean +/- standard deviation of 6 experiments, control (DMSO) 31.3, blank without enzyme 9.4) | SMILES | inhibition at 100 µM [1] [%] | inhibition at 10 µM [1] [%] | inhibition at 1 µM [1] [%]
1 |  |  |  |  | CCCCCCCCCCCCCCCCNS(=O)(=O)c1ccc(S(=O)(=O)NN=c2sc3ccc(S(=O)(=O)C(F)F)cc3n2C)cc1 [A.55] | 28 |  | 
2 |  |  |  |  | CCCCCCCCCCCCCCCCS(=O)(=O)c1ccc(S(=O)(=O)NN=c2sc3ccc(S(=O)(=O)O)cc3n2C)cc1C(=O)O [A.49] | 77 | 49 | 19
3 |  |  |  |  | CCCCCCCCCCCCCCCCS(=O)(=O)N(C)c1cccc(S(=O)(=O)NN=c2sc3ccc(S(=O)(=O)O)cc3n2C)c1 [A.48] | 42 | 34 | 28
4 |  |  |  |  | CCCCCCCCCCCCCCCCS(=O)(=O)c1ccc(S(=O)(=O)NN=c2sc3cc(S(=O)(=O)O)ccc3n2C)cc1NC(C)=O [A.46] | 56 | 33 | 13
5 |  |  |  |  | CCCCCCCCCCCCCCCCNS(=O)(=O)c1ccc(S(=O)(=O)NN=c2sc3ccccc3n2C)cc1 [A.51] | 29 |  | 
6 |  |  |  |  | CCCCCCCCCCCCCCCCOc1ccc(C(=O)O)cc1S(=O)(=O)NN=c1sc2ccc(S(=O)(=O)O)cc2n1C [A.28] | 60 | 42 | 26
7 |  |  |  |  | CCCCCCCCCCCCCCCCS(=O)(=O)Nc1cccc(S(=O)(=O)NN=c2sc3ccc(S(=O)(=O)C(F)F)cc3n2C)c1 [A.47] | 18 |  | 
8 | 90 | 0.093 +/- 0.026 | 102 | 9.0 +/- 1.4 AU/min *10^-3 | CCCCCCCCCCCCCCCCS(=O)(=O)c1ccc(S(=O)(=O)O)cc1C(=O)NN=c1sc2ccc(S(=O)(=O)O)cc2n1C [B.3] | 96 | 66 | 54
9 |  |  |  |  | CCCCCCCCCCCCCCCCNS(=O)(=O)c1ccc(S(=O)(=O)NN=c2sc3ccc(S(=O)(=O)O)cc3n2C)cc1 [A.52] | 89 | 12 | 
